From BindingDB's records for doi:10.1016/j.chembiol.2006.05.008 (Gpc Biotech, 2006) come the findings set out here.

This assay deals with Cyclin-dependent kinase 2 (Homo sapiens, UniProt P24941). The experiment in a line: Enzymatic Assay.

Experimental: CAII assays were performed at CEREP (paris). All other kinase assays were performed at Upstate (Dundee, UK).

In general, EC50 refers to the midpoint of the concentration-response curve. A higher EC50 goes with weaker potency. Usually IC50 stands for the point on the concentration scale where inhibition reaches its midpoint. A high value points to weaker potency. On to `CC(C)c1nn(-c2c(Cl)cc(Cl)cc2Cl)c2nc(Cc3ccc(OC(C)(C)C(=O)O)cc3)[nH]c(=O)c12` [RGB-285961], for which the EC50 amounted to 70 nM and half-maximal inhibition (IC50) was put at 20 nM.
